Laboratory results as given in US11214803B2, “Modulators of YAP1 expression” (Ionis Pharmaceuticals, Inc., priority 2019, dated 2022).
Strand notation (5' to 3'): a small letter for the sugar, then the base; units joined by * are phosphorothioate-linked, units joined directly phosphodiester-linked; [ ] holds rarer units or linkages, { } end groups; capitals alone tell only the bases. k = constrained ethyl (cEt); [5mC] = 5-methylcytosine; d = 2'-deoxy (DNA)

Each substance was assayed on Yap1 mRNA (assay: Antisense inhibition of human Yap1 in A-431 cells by cEt gapmers, single dose (Example 3, RTS36584)). Conditions: Table 8; A-431 cells, 5,000 cells per well, free uptake, 2,000 nM, approximately 48 hours; RTS36584; normalized to RIBOGREEN; Yap1 mRNA relative to untreated control cells.
Type: cell-based
Procedure, shortened: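 Values are % untreated control: Yap1 mRNA by quantitative RT-PCR (RTS36584), normalized to total RNA by RiboGreen. Before RNA isolation, 5,000 A-431 cells per well were exposed ~48 h to 2,000 nM 16-mer cEt gapmer, delivered without transfection reagent.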

For “958410 (antisense kT*kT*kT*dA*d[5mC]*d[5mC]*dA*dA*dA*dA*d[5mC]*dG*dA*kG*kG*kG) [Compound 958410]”, the “YAP1 (% UTC)” value was 70 % UTC.

Same assay, conditions: Table 9; A-431 cells, 5,000 cells per well, free uptake, 2,000 nM, approximately 48 hours; RTS36584; normalized to RIBOGREEN; Yap1 mRNA relative to untreated control cells

In order of falling “YAP1 (% UTC)” value:
1. 958651 (kA*kA*k[5mC]*dT*dA*dA*dA*dG*dA*dG*dG*dA*d[5mC]*kT*kT*kA; antisense) [Compound 958651]  62 % UTC
2. 958696 (antisense kG*k[5mC]*kA*dT*dA*d[5mC]*dT*dA*d[5mC]*dA*d[5mC]*dT*dA*kT*kA*kA) [Compound 958696]  56 % UTC
3. 958711 (antisense k[5mC]*k[5mC]*kA*dA*dA*dT*dA*dA*dG*dG*dA*dT*d[5mC]*kT*kG*kT) [Compound 958711]  34 % UTC
4. 958511 (k[5mC]*kA*k[5mC]*dT*dA*d[5mC]*d[5mC]*dA*d[5mC]*dA*d[5mC]*dT*dA*kT*kT*kA; antisense) [Compound 958511]  31 % UTC
5. 958756 (antisense kG*kT*kG*dT*dT*dG*d[5mC]*dA*dT*dG*dA*d[5mC]*dA*kG*k[5mC]*k[5mC]) [Compound 958756]  15 % UTC
6. 958481 (antisense kG*k[5mC]*kA*dA*d[5mC]*dT*dG*dG*d[5mC]*dT*dT*dA*dT*kG*kG*kA) [Compound 958481]  6 % UTC

Same assay, conditions: Table 10; A-431 cells, 5,000 cells per well, free uptake, 2,000 nM oligonucleotide, approx. 48 hours; primer probe set RTS36584; Yap1 mRNA normalized to RIBOGREEN, percent of untreated control

In order of rising “YAP1 (% UTC)” value:
1. 958537 (k[5mC]*kA*kG*dG*dG*dT*d[5mC]*dA*dA*dT*dT*dT*dT*k[5mC]*kA*kG; antisense) [Compound 958537]  3 % UTC
2. 958737 (antisense kG*kG*kA*dA*dT*dA*d[5mC]*dA*dA*dG*d[5mC]*d[5mC]*d[5mC]*kG*kA*kG) [Compound 958737]  8 % UTC
3. 958627 (antisense kT*kT*kG*dG*dG*d[5mC]*dA*dA*dA*dG*dT*dT*d[5mC]*k[5mC]*kT*kA) [Compound 958627]  61 % UTC

Same assay, conditions: Table 11; A-431 cells, 5,000 cells per well, free uptake, 2,000 nM oligonucleotide, approx. 48 hours; primer probe set RTS36584; Yap1 mRNA normalized to RIBOGREEN, percent of untreated control

In order of rising “YAP1 (% UTC)” value:
1. 958623 (antisense kT*kT*kG*dA*dT*dA*dT*dT*d[5mC]*d[5mC]*dG*d[5mC]*dA*kT*kT*kG) [Compound 958623]  3 % UTC
2. 958598 (k[5mC]*k[5mC]*k[5mC]*dA*dA*dT*dG*d[5mC]*dT*dA*d[5mC]*d[5mC]*d[5mC]*kA*kA*kT; antisense) [Compound 958598]  4 % UTC
3. 958678 (kG*kG*kA*dG*dG*dA*dG*dT*d[5mC]*dA*d[5mC]*d[5mC]*dA*kT*kG*kG; antisense) [Compound 958678]  74 % UTC
4. 958638 (antisense kG*kT*kG*d[5mC]*dG*dG*dA*dG*d[5mC]*dG*d[5mC]*dG*d[5mC]*kG*kG*kA) [Compound 958638]  127 % UTC

Same assay, conditions: Table 12; A-431 cells, 5,000 cells per well, free uptake, 2,000 nM modified oligonucleotide, approx. 48 hours; RTS36584; normalized to RIBOGREEN; Yap1 mRNA relative to untreated control cells

In order of falling “YAP1 (% UTC)” value:
1. 958689 (antisense k[5mC]*kA*kT*dT*dA*dA*dG*dG*dA*dG*dG*dT*dT*kA*kT*kG) [Compound 958689]  87 % UTC
2. 958684 (kG*k[5mC]*kT*dG*dA*dA*dG*dA*d[5mC]*dG*dG*d[5mC]*d[5mC]*k[5mC]*kT*kT; antisense) [Compound 958684]  70 % UTC

Same assay, conditions: Table 13; A-431 cells, 5,000 cells per well, free uptake, 2,000 nM modified oligonucleotide, approx. 48 hours; RTS36584; normalized to RIBOGREEN; Yap1 mRNA relative to untreated control cells

In order of rising “YAP1 (% UTC)” value:
1. 958650 (kT*k[5mC]*kA*dA*dT*dT*dG*dA*dG*dT*d[5mC]*dT*dG*k[5mC]*kT*kA; antisense) [Compound 958650]  3 % UTC
2. 958775 (antisense kG*kT*k[5mC]*dT*dA*dT*dA*d[5mC]*dG*dG*dG*dA*dG*kA*kT*kT) [Compound 958775]  29 % UTC
3. 958495 (kG*kG*kT*d[5mC]*dA*dT*dT*dA*dT*dG*dT*dG*dA*k[5mC]*kT*kA; antisense) [Compound 958495]  56 % UTC
4. 958740 (antisense k[5mC]*kG*kG*d[5mC]*dA*d[5mC]*d[5mC]*dA*dA*dA*d[5mC]*dA*d[5mC]*k[5mC]*k[5mC]*kA) [Compound 958740]  57 % UTC

Same assay, conditions: Table 26; Yap1 mRNA by 3-10-3 cEt gapmers targeting SEQ ID NO.: 1, and 2; percent of untreated control

For “1074860 (kA*kA*kA*dG*dG*dT*dA*dA*d[5mC]*dA*dT*dT*dG*kG*kT*kA; antisense) [compound 1074860]”, the “YAP1 (% UTC)” value was 9 % UTC.

Same assay, conditions: Table 27; Yap1 mRNA by 3-10-3 cEt gapmers targeting SEQ ID NO.: 1, and 2; percent of untreated control

In order of rising “YAP1 (% UTC)” value:
1. 1076109 (k[5mC]*kT*kT*dA*dA*dA*dT*dG*dA*d[5mC]*d[5mC]*dA*dA*kT*kT*k[5mC]; antisense) [compound 1076109]  23 % UTC
2. 1074957 (antisense kA*kA*k[5mC]*d[5mC]*d[5mC]*dG*dG*dG*dT*dT*dT*dT*dT*kG*kT*k[5mC]) [compound 1074957]  102 % UTC
3. 1074157 (kA*kG*k[5mC]*dG*dA*dG*dG*dG*d[5mC]*dT*dA*d[5mC]*dG*k[5mC]*k[5mC]*k[5mC]; antisense) [compound 1074157]  103 % UTC

Same assay, conditions: Table 28; Yap1 mRNA as percent of untreated control; 3-10-3 cEt gapmers targeting SEQ ID NO.: 1, and 2

With “1075790 (kT*k[5mC]*kA*dG*dA*dA*dG*dA*dA*d[5mC]*dT*d[5mC]*d[5mC]*k[5mC]*kA*kT; antisense) [compound 1075790]” the “YAP1 (% UTC)” value was 14 % UTC.

Same assay, conditions: Table 29; Yap1 mRNA as percent of untreated control; 3-10-3 cEt gapmers targeting SEQ ID NO.: 1, and 2

In order of rising “YAP1 (% UTC)” value:
1. 1074575 (DNA kA*k[5mC]*kA*dT*dT*dA*dT*dG*dA*dA*d[5mC]*d[5mC]*dT*kA*k[5mC]*kT) [compound 1074575]  14 % UTC
2. 1076175 (k[5mC]*kA*kA*dT*dA*dG*dG*dT*dA*dA*d[5mC]*dA*dG*kG*kT*kA; antisense) [compound 1076175]  15 % UTC
3. 1074831 (k[5mC]*kG*kA*dG*dG*dA*dT*dA*dA*dA*dA*dT*d[5mC]*k[5mC]*kA*k[5mC]; antisense) [compound 1074831]  35 % UTC
4. 1075151 (kT*kT*kT*dA*dA*dA*dA*dG*dT*dA*d[5mC]*d[5mC]*dA*kG*k[5mC]*kG; antisense) [compound 1075151]  60 % UTC

Same assay, conditions: Table 34; Yap1 mRNA as percent of untreated control; 3-10-3 cEt gapmers targeting SEQ ID NO: 1 and 2; single dose

In order of rising “YAP1 (% UTC)” value:
1. 1076404 (antisense kT*kA*kT*dT*dT*dA*dA*dG*dA*d[5mC]*d[5mC]*dT*dG*kG*kT*kG) [compound 1076404]  13 % UTC
2. 1074804 (kT*kA*kG*d[5mC]*dA*dA*dA*dG*dT*d[5mC]*dA*d[5mC]*dT*kT*k[5mC]*k[5mC]; antisense) [compound 1074804]  15 % UTC
3. 1076148 (kT*kA*kT*dT*dA*dA*d[5mC]*dT*d[5mC]*dA*d[5mC]*dG*dA*kA*kG*kA; antisense) [compound 1076148]  52 % UTC
4. 1075604 (antisense kA*kT*kA*dA*dT*dT*dA*dA*dG*d[5mC]*dT*dA*dT*k[5mC]*kA*k[5mC]) [compound 1075604]  81 % UTC

Same assay, conditions: Table 35; Yap1 mRNA as percent of untreated control; 3-10-3 cEt gapmers targeting SEQ ID NO: 1 and 2; single dose

In order of falling “YAP1 (% UTC)” value:
1. 1076021 (k[5mC]*kA*kT*dT*dA*dA*dT*dA*dA*dA*dG*dT*dT*kA*k[5mC]*k[5mC]; antisense) [compound 1076021]  95 % UTC
2. 1075445 (antisense kT*kA*kT*dA*dA*dA*dT*d[5mC]*d[5mC]*dT*d[5mC]*dA*dT*kG*kT*kG) [compound 1075445]  84 % UTC
3. 1075349 (antisense kA*kT*kT*dA*dA*dA*dG*d[5mC]*dT*d[5mC]*dA*dT*dT*kG*kA*kT) [compound 1075349]  81 % UTC
4. 1075189 (kG*k[5mC]*kT*dA*dA*dT*dA*dG*dT*d[5mC]*dA*d[5mC]*dT*kG*kT*kT; antisense) [compound 1075189]  11 % UTC
